Numbers after ± are expanded uncertainties.
Assay: xn = mol fraction of the nth substance listed
Conditions: Liquid, Vibrating tube method

CC(C)CCl [1-chloro-2-methylpropane] + CCCCCCC
Conditions | mass density [kg/m3]
303.15 K, 50000 kPa, x2 = 0.2009 | 860.41 ± 0.5
303.15 K, 50000 kPa, x2 = 0.3009 | 837.32 ± 0.55
303.15 K, 50000 kPa, x2 = 0.3981 | 816.52 ± 0.59
303.15 K, 50000 kPa, x2 = 0.4986 | 796.41 ± 0.63
303.15 K, 50000 kPa, x2 = 0.5998 | 777.65 ± 0.67
303.15 K, 50000 kPa, x2 = 0.7038 | 759.78 ± 0.7
303.15 K, 50000 kPa, x2 = 0.7993 | 744.45 ± 0.74
303.15 K, 50000 kPa, x2 = 0.8995 | 729.47 ± 0.77
303.15 K, 50000 kPa, x2 = 0.9507 | 722.23 ± 0.78
303.15 K, 60000 kPa, x2 = 0.0531 | 905.4 ± 0.45
303.15 K, 60000 kPa, x2 = 0.1023 | 892.33 ± 0.48
303.15 K, 60000 kPa, x2 = 0.2009 | 867.48 ± 0.54
303.15 K, 60000 kPa, x2 = 0.3009 | 844.24 ± 0.6
303.15 K, 60000 kPa, x2 = 0.3981 | 823.28 ± 0.65
303.15 K, 60000 kPa, x2 = 0.4986 | 803.13 ± 0.69
303.15 K, 60000 kPa, x2 = 0.5998 | 784.27 ± 0.74
303.15 K, 60000 kPa, x2 = 0.7038 | 766.25 ± 0.78
303.15 K, 60000 kPa, x2 = 0.7993 | 750.88 ± 0.82
303.15 K, 60000 kPa, x2 = 0.8995 | 735.73 ± 0.86
303.15 K, 60000 kPa, x2 = 0.9507 | 728.44 ± 0.87
303.15 K, 65000 kPa, x2 = 0.0531 | 908.87 ± 0.46
303.15 K, 65000 kPa, x2 = 0.1023 | 895.79 ± 0.5
303.15 K, 65000 kPa, x2 = 0.2009 | 870.84 ± 0.56
303.15 K, 65000 kPa, x2 = 0.3009 | 847.58 ± 0.62
303.15 K, 65000 kPa, x2 = 0.3981 | 826.58 ± 0.67
303.15 K, 65000 kPa, x2 = 0.4986 | 806.34 ± 0.72
303.15 K, 65000 kPa, x2 = 0.5998 | 787.42 ± 0.77
303.15 K, 65000 kPa, x2 = 0.7038 | 769.32 ± 0.82
303.15 K, 65000 kPa, x2 = 0.7993 | 753.84 ± 0.86
303.15 K, 65000 kPa, x2 = 0.8995 | 738.7 ± 0.9
303.15 K, 65000 kPa, x2 = 0.9507 | 731.35 ± 0.92
313.15 K, 100 kPa, x2 = 0.0531 | 840.36 ± 0.24
313.15 K, 100 kPa, x2 = 0.1023 | 827.85 ± 0.24
313.15 K, 100 kPa, x2 = 0.2009 | 804.22 ± 0.24
313.15 K, 100 kPa, x2 = 0.3009 | 782.2 ± 0.24
313.15 K, 100 kPa, x2 = 0.3981 | 762.38 ± 0.24
313.15 K, 100 kPa, x2 = 0.4986 | 743.42 ± 0.25
313.15 K, 100 kPa, x2 = 0.5998 | 725.7 ± 0.25
313.15 K, 100 kPa, x2 = 0.7038 | 708.77 ± 0.25
313.15 K, 100 kPa, x2 = 0.7993 | 694.32 ± 0.25
313.15 K, 100 kPa, x2 = 0.8995 | 680.21 ± 0.25
313.15 K, 100 kPa, x2 = 0.9507 | 673.34 ± 0.25
313.15 K, 2000 kPa, x2 = 0.0531 | 842.7 ± 0.25
313.15 K, 2000 kPa, x2 = 0.1023 | 830.21 ± 0.25
313.15 K, 2000 kPa, x2 = 0.2009 | 806.67 ± 0.25
313.15 K, 2000 kPa, x2 = 0.3009 | 784.62 ± 0.26
313.15 K, 2000 kPa, x2 = 0.3981 | 764.76 ± 0.26
313.15 K, 2000 kPa, x2 = 0.4986 | 745.75 ± 0.26
313.15 K, 2000 kPa, x2 = 0.5998 | 727.98 ± 0.27
313.15 K, 2000 kPa, x2 = 0.7038 | 711.05 ± 0.27
313.15 K, 2000 kPa, x2 = 0.7993 | 696.57 ± 0.27
313.15 K, 2000 kPa, x2 = 0.8995 | 682.44 ± 0.27
313.15 K, 2000 kPa, x2 = 0.9507 | 675.59 ± 0.27
313.15 K, 5000 kPa, x2 = 0.0531 | 846.39 ± 0.27
313.15 K, 5000 kPa, x2 = 0.1023 | 833.87 ± 0.27
313.15 K, 5000 kPa, x2 = 0.2009 | 810.25 ± 0.28
313.15 K, 5000 kPa, x2 = 0.3009 | 788.13 ± 0.28
313.15 K, 5000 kPa, x2 = 0.3981 | 768.2 ± 0.29
313.15 K, 5000 kPa, x2 = 0.4986 | 749.13 ± 0.29
313.15 K, 5000 kPa, x2 = 0.5998 | 731.29 ± 0.3
313.15 K, 5000 kPa, x2 = 0.7038 | 714.28 ± 0.3
313.15 K, 5000 kPa, x2 = 0.7993 | 699.76 ± 0.3
313.15 K, 5000 kPa, x2 = 0.8995 | 685.54 ± 0.31
313.15 K, 5000 kPa, x2 = 0.9507 | 678.7 ± 0.31
313.15 K, 7000 kPa, x2 = 0.0531 | 848.82 ± 0.28
313.15 K, 7000 kPa, x2 = 0.1023 | 836.28 ± 0.28
313.15 K, 7000 kPa, x2 = 0.2009 | 812.64 ± 0.29
313.15 K, 7000 kPa, x2 = 0.3009 | 790.49 ± 0.3
313.15 K, 7000 kPa, x2 = 0.3981 | 770.54 ± 0.3
313.15 K, 7000 kPa, x2 = 0.4986 | 751.42 ± 0.31
313.15 K, 7000 kPa, x2 = 0.5998 | 733.56 ± 0.32
313.15 K, 7000 kPa, x2 = 0.7038 | 716.53 ± 0.32
313.15 K, 7000 kPa, x2 = 0.7993 | 701.96 ± 0.33
313.15 K, 7000 kPa, x2 = 0.8995 | 687.72 ± 0.33
313.15 K, 7000 kPa, x2 = 0.9507 | 680.86 ± 0.33
313.15 K, 10000 kPa, x2 = 0.0531 | 852.24 ± 0.29
313.15 K, 10000 kPa, x2 = 0.1023 | 839.68 ± 0.3
313.15 K, 10000 kPa, x2 = 0.2009 | 815.97 ± 0.31
313.15 K, 10000 kPa, x2 = 0.3009 | 793.76 ± 0.32
313.15 K, 10000 kPa, x2 = 0.3981 | 773.76 ± 0.33
313.15 K, 10000 kPa, x2 = 0.4986 | 754.58 ± 0.34
313.15 K, 10000 kPa, x2 = 0.5998 | 736.65 ± 0.34
313.15 K, 10000 kPa, x2 = 0.7038 | 719.62 ± 0.35
313.15 K, 10000 kPa, x2 = 0.7993 | 705.01 ± 0.36
313.15 K, 10000 kPa, x2 = 0.8995 | 690.72 ± 0.37
313.15 K, 10000 kPa, x2 = 0.9507 | 683.8 ± 0.37
313.15 K, 20000 kPa, x2 = 0.0531 | 863.01 ± 0.34
313.15 K, 20000 kPa, x2 = 0.1023 | 850.29 ± 0.35
313.15 K, 20000 kPa, x2 = 0.2009 | 826.35 ± 0.37
313.15 K, 20000 kPa, x2 = 0.3009 | 804.06 ± 0.39
313.15 K, 20000 kPa, x2 = 0.3981 | 783.83 ± 0.41

Reference: the NIST ThermoML archive (doi:10.1016/j.tca.2015.06.017)
